Measured values published in PubChem BioAssay AID687022 (Broad Institute, 2013).
Calls of active or inactive are those of the source.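 How the source made its calls: active means Fitted curve of melting temperature shift crosses the 1.0 threshold at or below the sample's highest valid tested concentration; inconclusive means Flat fit with activity 30 to 70, or invalid fit; inactive means Opposite direction, flat within 30, or no crossing.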

target: Fibroblast growth factor 22 (Homo sapiens) (UniProt Q9HCT0); assay: FGF22 ligand-induced thermal stabilization – biophysical, thermal shift, cherry-pick, FGF22 synaptogenesis inhibitor project, dose response (AID 687022); details: recombinant FGF22 thermal shift, SYPRO orange melting
Sequence (Q9HCT0 whole entry, looked up): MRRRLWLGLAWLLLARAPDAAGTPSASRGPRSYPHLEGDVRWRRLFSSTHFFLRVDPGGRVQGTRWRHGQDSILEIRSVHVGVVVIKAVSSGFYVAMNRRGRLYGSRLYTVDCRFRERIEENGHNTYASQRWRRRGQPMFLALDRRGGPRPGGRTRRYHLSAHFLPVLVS

COc1cccc(NC(=O)N(C)C[C@H]2Oc3cc(-c4ccccc4F)ccc3S(=O)(=O)N([C@@H](C)CO)C[C@H]2C)c1 and COc1cccc(NC(=O)N(C)C[C@H]2Oc3cc(-c4ccccc4F)ccc3S(=O)(=O)N([C@H](C)CO)C[C@H]2C)c1 are within 1.5-fold of each other in AbsAC1 (concentration giving Tm-shift threshold 1.0): 5.23 µM for the first, 4.99 µM for the second.

Going from O=C(O)c1ccc(Cl)c(S(=O)(=O)Nc2ccc(S(=O)(=O)N3CCCC3)cc2)c1 to CCOC(=O)c1ccc(S(=O)(=O)Nc2cc(C(=O)O)ccc2Cl)cc1, the AbsAC1 (concentration giving Tm-shift threshold 1.0) rises from 14.1 µM to 26.2 µM (1.9-fold).

Going from COC(=O)CN1C(=S)N(c2ccc(Cl)cc2)C(=O)C1CC(=O)Nc1ccc(F)cc1 (configuration not stated) to COC(=O)CN1C(=S)N(c2ccc(F)cc2)C(=O)C1CC(=O)Nc1ccccc1 (configuration not stated), the AbsAC1 (concentration giving Tm-shift threshold 1.0) rises from 6.03 µM to 16.1 µM (2.7-fold).

Going from O=C(N/N=C/c1c[nH]c2ccccc12)C1CC1c1ccccc1 (configuration not stated) to O=C(N/N=C/c1c[nH]c2ccccc12)c1ccc(O)c(O)c1, the AbsAC1 (concentration giving Tm-shift threshold 1.0) falls from 14 µM to 3.74 µM (3.7-fold).

Compared with O=C(Nc1nc(=O)n(C(=O)C2CC2)s1)c1ccccc1, O=C(O)Cc1ccc(NC(=O)c2ccc(Cl)c(Cl)c2)cc1 is 4.6-fold lower in AbsAC1 (concentration giving Tm-shift threshold 1.0): 20.7 µM for the first, 4.5 µM for the second.

CCOc1ccc(N2C(=O)C(CC(=O)Nc3ccc(F)cc3)N(Cc3ccccn3)C2=S)cc1 (configuration not stated) and O=C(CCc1c[nH]c2ccccc12)Nc1ccc(Oc2cccnc2)cc1 are within 1.5-fold of each other in AbsAC1 (concentration giving Tm-shift threshold 1.0): 9.4 µM for the first, 7.99 µM for the second.

Nc1ccccc1N=Nc1ccccc1N and Brc1ccccc1/C=N/Nc1ccccn1 are within 1.5-fold of each other in AbsAC1 (concentration giving Tm-shift threshold 1.0): 7.75 µM for the first, 9.78 µM for the second.

Compared with C/C=C/c1ccc2c(c1)O[C@@H](CN(C)C(=O)Nc1cccc(F)c1)[C@@H](C)CN([C@@H](C)CO)S2(=O)=O, C[C@H](CO)N1C[C@H](C)[C@H](CN(C)C(=O)Nc2ccc3c(c2)OCO3)Oc2cc(C3=CCCC3)ccc2S1(=O)=O is 4.8-fold higher in AbsAC1 (concentration giving Tm-shift threshold 1.0): 7.47 µM for the first, 36.2 µM for the second.

CN1C(=O)c2cc(NC(=O)c3cccc(F)c3)ccc2OC[C@@H]2O[C@H](CC(=O)NCC3CCCCC3)CC[C@@H]21 and CN1C(=O)c2cc(NC(=O)c3cccc(F)c3)ccc2OC[C@H]2O[C@@H](CC(=O)NCC3CCCCC3)CC[C@H]21 are within 1.5-fold of each other in AbsAC1 (concentration giving Tm-shift threshold 1.0): 16.8 µM for the first, 22.3 µM for the second.

Going from NC(=NCCc1c[nH]c2ccccc12)NS(=O)(=O)c1ccc(F)cc1 to Cc1cc(C)cc(NC(=O)CN2C(=O)NC(Cc3c[nH]c4ccccc34)C2=O)c1 (configuration not stated), the AbsAC1 (concentration giving Tm-shift threshold 1.0) rises from 6.63 µM to 13 µM (2-fold).

Compared with O=S(=O)(O)c1cccc2cccc(Nc3ccccc3)c12, Clc1ccc(Nc2ccc(NCc3ccccc3)nn2)cc1 is 3.4-fold lower in AbsAC1 (concentration giving Tm-shift threshold 1.0): 9.29 µM for the first, 2.73 µM for the second.

Going from COc1cccc(NC(=O)CN(C)C(=O)c2ccc(N3CCCCC3)c([N+](=O)[O-])c2)c1 to O=[N+]([O-])c1cccc(S(=O)(=O)Nc2ccc(-c3ccc(N4CCCC4)nn3)cc2)c1, the AbsAC1 (concentration giving Tm-shift threshold 1.0) rises from 11.4 µM to 19.1 µM (1.7-fold).

Compared with N#Cc1c(-c2ccccc2)nc(-c2ccncc2)[nH]c1=O, N#CC(C#N)=C1NC(N)=C(C#N)C(c2ccccc2)=C1C#N is 7.5-fold lower in AbsAC1 (concentration giving Tm-shift threshold 1.0): 30.3 µM for the first, 4.02 µM for the second.

COc1ccccc1NC(=O)Nc1cccc(NC(C)=O)c1 and CC(=O)Nc1cccc(NC(=O)c2ccc3[nH]c(C)c(C)c3c2)c1 are within 1.5-fold of each other in AbsAC1 (concentration giving Tm-shift threshold 1.0): 7.52 µM for the first, 5.11 µM for the second.

Compared with O=C(C[C@H]1CC[C@@H]2[C@H](COC[C@H](O)CN2S(=O)(=O)c2cccc(Cl)c2)O1)Nc1ccccc1, O=C(C[C@H]1CC[C@@H]2[C@H](COC[C@H](O)CN2S(=O)(=O)c2cccc(F)c2)O1)Nc1ccccc1 is 1.8-fold higher in AbsAC1 (concentration giving Tm-shift threshold 1.0): 1.93 µM for the first, 3.48 µM for the second.

Going from CCn1c2ccccc2c2cc(/C=N/NC(=O)c3ccncc3)ccc21 to COc1ccc(/C=N/Nc2ccc([N+](=O)[O-])cc2)cc1O, the AbsAC1 (concentration giving Tm-shift threshold 1.0) falls from 25 µM to 4.37 µM (5.7-fold).

CCC(C)n1c(O)c(C(c2ccccn2)c2c(O)n(C(C)CC)c(=S)[nH]c2=O)c(=O)[nH]c1=S (configuration not stated) and CC(=O)c1c(C)nc(-c2ccc(OCC(=O)Nc3cccc(C)c3C)cc2)n1O are within 1.5-fold of each other in AbsAC1 (concentration giving Tm-shift threshold 1.0): 20.7 µM for the first, 29.7 µM for the second.

Compared with COc1cc(NC(=O)c2csc(N)n2)cc(C(=O)Nc2cccc(C(F)(F)F)c2)c1, O=C(Nc1ccc(O)cc1)c1cccc(Oc2ccc([N+](=O)[O-])cc2)c1 is 2.4-fold lower in AbsAC1 (concentration giving Tm-shift threshold 1.0): 10.3 µM for the first, 4.32 µM for the second.

First: CC(=O)Nc1ccc(S(=O)(=O)Nc2nc3ccc([N+](=O)[O-])cc3s2)cc1
Second: COc1cc(NS(=O)(=O)c2ccc(NS(=O)(=O)c3ccc(C)cc3)cc2)nc(OC)n1
The AbsAC1 (concentration giving Tm-shift threshold 1.0) of the first is 6.2-fold higher: 23 µM for the first, 3.69 µM for the second.

COC12CC(=O)C(C(C)=O)=C(O)C1(C)c1c(O)c(C)c(O)c(C(C)=O)c1O2 (configuration not stated) and O=c1oc(-c2ccc(O)c(O)c2)cc2cc(O)cc(O)c12 are within 1.5-fold of each other in AbsAC1 (concentration giving Tm-shift threshold 1.0): 6.77 µM for the first, 4.66 µM for the second.

O=C(NCc1ccc(Cl)cc1)c1n[nH]c([N+](=O)[O-])c1Cl and CCOC(=O)c1sc(N2C(=O)C(O)=C(C(=O)c3ccco3)C2c2ccc([N+](=O)[O-])cc2)nc1C (configuration not stated) are within 1.5-fold of each other in AbsAC1 (concentration giving Tm-shift threshold 1.0): 5.18 µM for the first, 5.28 µM for the second.

Compared with COc1cccc(S(=O)(=O)N2C[C@@H](O)COC[C@@H]3O[C@@H](CC(=O)Nc4ccccc4)CC[C@H]32)c1, O=C(Nc1ccc(Cl)cc1)N[C@@H]1CC[C@@H](CCNS(=O)(=O)c2ccccc2F)O[C@H]1CO is 1.7-fold higher in AbsAC1 (concentration giving Tm-shift threshold 1.0): 3.38 µM for the first, 5.88 µM for the second.

First: COC(=O)C1=C(CS(=O)(=O)c2cc(OC)ccc2OC)NC(=O)NC1c1ccc(O)c(OC)c1 (configuration not stated)
Second: COc1ccc(C#Cc2ccc3c(c2)O[C@H](CN(C)S(=O)(=O)c2ccccc2F)[C@@H](C)CN([C@@H](C)CO)S3(=O)=O)cc1
The AbsAC1 (concentration giving Tm-shift threshold 1.0) of the first is 4.8-fold lower: 3.09 µM for the first, 14.7 µM for the second.

Going from Cc1nc2ccc(NC(=O)c3ccc(C)c(S(=O)(=O)N4CCOCC4)c3)cc2s1 to Cc1noc(NS(=O)(=O)c2ccc(NC(=O)c3cccc(S(=O)(=O)N(C)c4ccccc4)c3)cc2)c1C, the AbsAC1 (concentration giving Tm-shift threshold 1.0) falls from 25.9 µM to 4.7 µM (5.5-fold).

Compared with CO[C@@H](CN(C)S(=O)(=O)c1ccc(Cl)cc1)[C@@H](C)CN([C@H](C)CO)S(=O)(=O)c1cccc(Cl)c1, C[C@@H]1CN([C@@H](C)CO)S(=O)(=O)c2ccc(-c3ccncc3)cc2O[C@@H]1CN(C)C(=O)Nc1ccc(C(F)(F)F)cc1 is 5.5-fold lower in AbsAC1 (concentration giving Tm-shift threshold 1.0): 10.7 µM for the first, 1.96 µM for the second.

O=C(Nc1ccc(F)cc1)N[C@@H]1CC[C@H](CCn2cc(-c3ccccc3F)nn2)O[C@H]1CO and O=C(Cn1cc(COc2ccc(Br)cc2)nn1)c1ccc(O)cc1 are within 1.5-fold of each other in AbsAC1 (concentration giving Tm-shift threshold 1.0): 10.3 µM for the first, 7.63 µM for the second.

In the case of O=C(N/N=C\c1cccnc1)c1cc(-c2ccc(Cl)s2)[nH]n1, the AbsAC1 (concentration giving Tm-shift threshold 1.0) is reported as > 38 µM (inactive).
O=C(C[C@H]1CC[C@H]2[C@@H](COC[C@H](O)CN2Cc2ccccc2)O1)NCCc1ccccc1 was tested, and the AbsAC1 (concentration giving Tm-shift threshold 1.0) was > 38 µM (inactive).
With C[C@@H]1CN([C@@H](C)CO)S(=O)(=O)c2ccc(-c3ccc(F)cc3)cc2O[C@@H]1CN(C)C(=O)Nc1ccccc1F the AbsAC1 (concentration giving Tm-shift threshold 1.0) was > 38 µM (inactive).
In the case of CC(=O)C1=C(O)C(=O)N(c2ccc(S(=O)(=O)Nc3nccs3)cc2)C1c1ccc(F)cc1 (configuration not stated), the AbsAC1 (concentration giving Tm-shift threshold 1.0) is reported as > 19.5 µM (inactive).
For CCc1nnc(NS(=O)(=O)c2ccc(Nc3ccc([N+](=O)[O-])c4nonc34)cc2)s1, the AbsAC1 (concentration giving Tm-shift threshold 1.0) was > 5 µM (inactive).
